According to ChEMBL document CHEMBL1201861, “Genomics of Drug Sensitity in Cancer screening data, Wellcome Trust Sanger Institute”:

Assays:
Test in all cases: cells
SW1573 = type: functional, cell-based, Homo sapiens; settings: Homo sapiens, SW1573
Description: SANGER: Inhibition of human SW1573 cell growth in a cell viability assay.

CP50-MEL-B = type: functional, cell-based, Homo sapiens; settings: Homo sapiens, CP50-MEL-B
Description: SANGER: Inhibition of human CP50-MEL-B cell growth in a cell viability assay.

no-11 = type: functional, cell-based, Homo sapiens; settings: Homo sapiens
Description: SANGER: Inhibition of human no-11 cell growth in a cell viability assay.

CAL-62 = type: functional, cell-based, Homo sapiens; settings: Homo sapiens, CAL-62
Description: SANGER: Inhibition of human CAL-62 cell growth in a cell viability assay.

COLO-679 = type: functional, cell-based, Homo sapiens; settings: Homo sapiens, COLO-679
Description: SANGER: Inhibition of human COLO-679 cell growth in a cell viability assay.

Lu-65 = type: functional, cell-based; settings: Homo sapiens
Description: SANGER: Inhibition of human LU-65 cell growth in a cell viability assay.

LAN-6 = type: functional, cell-based, Homo sapiens; settings: Homo sapiens, LAN-6
Description: SANGER: Inhibition of human LAN-6 cell growth in a cell viability assay.

BE-13 = type: functional, cell-based; settings: Homo sapiens
Description: SANGER: Inhibition of human BE-13 cell growth in a cell viability assay.

GCIY = type: functional, cell-based, Homo sapiens; settings: Homo sapiens, GCIY
Description: SANGER: Inhibition of human GCIY cell growth in a cell viability assay.

ESS-1 = type: functional, cell-based, Homo sapiens; settings: Homo sapiens, ESS-1
Description: SANGER: Inhibition of human ESS-1 cell growth in a cell viability assay.

KLE = type: functional, cell-based, Homo sapiens; settings: Homo sapiens, KLE
Description: SANGER: Inhibition of human KLE cell growth in a cell viability assay.

ATN-1 = type: functional, cell-based; settings: Homo sapiens
Description: SANGER: Inhibition of human ATN-1 cell growth in a cell viability assay.

CAL-33 = type: functional, cell-based, Homo sapiens; settings: Homo sapiens, CAL-33
Description: SANGER: Inhibition of human CAL-33 cell growth in a cell viability assay.

IST-MES1 = type: functional, cell-based, Homo sapiens; settings: Homo sapiens, IST-MES1
Description: SANGER: Inhibition of human IST-MES1 cell growth in a cell viability assay.

EKVX = type: functional, cell-based, Homo sapiens; settings: Homo sapiens, EKVX
Description: SANGER: Inhibition of human EKVX cell growth in a cell viability assay.

OS-RC-2 = type: functional, cell-based, Homo sapiens; settings: Homo sapiens, OS-RC-2
Description: SANGER: Inhibition of human OS-RC-2 cell growth in a cell viability assay.

HH = type: functional, cell-based; settings: Homo sapiens
Description: SANGER: Inhibition of human HH cell growth in a cell viability assay.

SK-N-AS = type: functional, cell-based, Homo sapiens; settings: Homo sapiens, SK-N-AS
Description: SANGER: Inhibition of human SK-N-AS cell growth in a cell viability assay.

SW872 = type: functional, cell-based, Homo sapiens; settings: Homo sapiens, SW872
Description: SANGER: Inhibition of human SW872 cell growth in a cell viability assay.

EW-24 = type: functional, cell-based; settings: Homo sapiens
Description: SANGER: Inhibition of human EW-24 cell growth in a cell viability assay.

MG-63 = type: functional, cell-based, Homo sapiens; settings: Homo sapiens, MG-63
Description: SANGER: Inhibition of human MG-63 cell growth in a cell viability assay.

NKM-1 = type: functional, cell-based; settings: Homo sapiens
Description: SANGER: Inhibition of human NKM-1 cell growth in a cell viability assay.

NCI-H358 = type: functional, cell-based, Homo sapiens; settings: Homo sapiens, NCI-H358
Description: SANGER: Inhibition of human NCI-H358 cell growth in a cell viability assay.

GP5d = type: functional, cell-based, Homo sapiens; settings: Homo sapiens, GP5d
Description: SANGER: Inhibition of human GP5d cell growth in a cell viability assay.

A704 = type: functional, cell-based, Homo sapiens; settings: Homo sapiens, A704
Description: SANGER: Inhibition of human A704 cell growth in a cell viability assay.

UACC-257 = type: functional, cell-based, Homo sapiens; settings: Homo sapiens, UACC-257
Description: SANGER: Inhibition of human UACC-257 cell growth in a cell viability assay.

MDA-MB-415 = type: functional, cell-based; settings: Homo sapiens
NCI-H2087 = type: functional, cell-based, Homo sapiens; settings: Homo sapiens, NCI-H2087
Description: SANGER: Inhibition of human NCI-H2087 cell growth in a cell viability assay.

CWR22R = type: functional, cell-based, Homo sapiens; settings: Homo sapiens, 22Rv1
Description: SANGER: Inhibition of human 22RV1 cell growth in a cell viability assay.

TGBC24TKB = type: functional, cell-based, Homo sapiens; settings: Homo sapiens, TGBC24TKB
Description: SANGER: Inhibition of human TGBC24TKB cell growth in a cell viability assay.

ES7 = type: functional, cell-based, Homo sapiens; settings: Homo sapiens, ES7
Description: SANGER: Inhibition of human ES7 cell growth in a cell viability assay.

NCI-H2347 = type: functional, cell-based, Homo sapiens; settings: Homo sapiens, NCI-H2347
Description: SANGER: Inhibition of human NCI-H2347 cell growth in a cell viability assay.

NCI-H82 = type: functional, cell-based; settings: Homo sapiens
Description: SANGER: Inhibition of human NCI-H82 cell growth in a cell viability assay.

NCI-H596 = type: functional, cell-based, Homo sapiens; settings: Homo sapiens, NCI-H596
Description: SANGER: Inhibition of human NCI-H596 cell growth in a cell viability assay.

LB1047-RCC = type: functional, cell-based, Homo sapiens; settings: Homo sapiens, LB1047-RCC
Description: SANGER: Inhibition of human LB1047-RCC cell growth in a cell viability assay.

SiHa = type: functional, cell-based, Homo sapiens; settings: Homo sapiens, SiHa
Description: SANGER: Inhibition of human SiHa cell growth in a cell viability assay.

HCC1569 = type: functional, cell-based, Homo sapiens; settings: Homo sapiens, HCC1569
Description: SANGER: Inhibition of human HCC1569 cell growth in a cell viability assay.

KG-1 = type: functional, cell-based; settings: Homo sapiens
Description: SANGER: Inhibition of human KG-1 cell growth in a cell viability assay.

S-117 = type: functional, cell-based, Homo sapiens; settings: Homo sapiens, S-117
Description: SANGER: Inhibition of human S-117 cell growth in a cell viability assay.

WM-115 = type: functional, cell-based, Homo sapiens; settings: Homo sapiens, WM-115
Description: SANGER: Inhibition of human WM-115 cell growth in a cell viability assay.

KYSE-270 = type: functional, cell-based, Homo sapiens; settings: Homo sapiens, KYSE-270
Description: SANGER: Inhibition of human KYSE-270 cell growth in a cell viability assay.

NCI-H1395 = type: functional, cell-based, Homo sapiens; settings: Homo sapiens, NCI-H1395
Description: SANGER: Inhibition of human NCI-H1395 cell growth in a cell viability assay.

LoVo = type: functional, cell-based; settings: Homo sapiens
Description: SANGER: Inhibition of human LoVo cell growth in a cell viability assay.

A-431 = type: functional, cell-based, Homo sapiens; settings: Homo sapiens, A-431
Description: SANGER: Inhibition of human A431 cell growth in a cell viability assay.

CCRF-CEM = type: functional, cell-based; settings: Homo sapiens
Description: SANGER: Inhibition of human CCRF-CEM cell growth in a cell viability assay.

COR-L105 = type: functional, cell-based, Homo sapiens; settings: Homo sapiens, COR-L105
Description: SANGER: Inhibition of human COR-L105 cell growth in a cell viability assay.

SH-4 = type: functional, cell-based, Homo sapiens; settings: Homo sapiens, SH-4
Description: SANGER: Inhibition of human SH-4 cell growth in a cell viability assay.

C-33-A = type: functional, cell-based, Homo sapiens; settings: Homo sapiens, C-33-A
Description: SANGER: Inhibition of human C-33-A cell growth in a cell viability assay.

RH-1 = type: functional, cell-based, Homo sapiens; settings: Homo sapiens, RH-1
Description: SANGER: Inhibition of human RH-1 cell growth in a cell viability assay.

RKO = type: functional, cell-based, Homo sapiens; settings: Homo sapiens, RKO
Description: SANGER: Inhibition of human RKO cell growth in a cell viability assay.

NCI-H292 = type: functional, cell-based, Homo sapiens; settings: Homo sapiens, NCI-H292
Description: SANGER: Inhibition of human NCI-H292 cell growth in a cell viability assay.

D-392MG = type: functional, cell-based, Homo sapiens; settings: Homo sapiens, D-392MG

## CN(Cc1cnc2nc(N)nc(N)c2n1)c1ccc(C(=O)N[C@@H](CCC(=O)O)C(=O)O)cc1 [METHOTREXATE]
SW1573
  IC50: > 200 nM
CP50-MEL-B
  IC50: > 200 nM
no-11
  IC50: > 200 nM
CAL-62
  IC50: > 200 nM
COLO-679
  IC50: > 200 nM
Lu-65
  IC50: > 200 nM
LAN-6
  IC50: > 200 nM
BE-13
  IC50: 38.7 nM
GCIY
  IC50: > 200 nM
ESS-1
  IC50: > 200 nM
KLE
  IC50: > 200 nM
ATN-1
  IC50: 3.92 nM
CAL-33
  IC50: > 200 nM
IST-MES1
  IC50: > 200 nM
EKVX
  IC50: > 200 nM
OS-RC-2
  IC50: > 200 nM
HH
  IC50: 31.6 nM
SK-N-AS
  IC50: > 200 nM
SW872
  IC50: > 200 nM
EW-24
  IC50: > 200 nM
MG-63
  IC50: 197 nM
NKM-1
  IC50: 7.7 nM
NCI-H358
  IC50: > 200 nM
GP5d
  IC50: > 200 nM
A704
  IC50: > 200 nM
UACC-257
  IC50: > 200 nM
MDA-MB-415
  IC50: > 200 nM
NCI-H2087
  IC50: > 200 nM
CWR22R
  IC50: > 200 nM
TGBC24TKB
  IC50: > 200 nM
ES7
  IC50: 148 nM
NCI-H2347
  IC50: > 200 nM
NCI-H82
  IC50: > 200 nM
NCI-H596
  IC50: > 200 nM
LB1047-RCC
  IC50: > 200 nM
SiHa
  IC50: > 200 nM
HCC1569
  IC50: > 200 nM
KG-1
  IC50: > 200 nM
S-117
  IC50: > 200 nM
WM-115
  IC50: > 200 nM
KYSE-270
  IC50: 52.1 nM
NCI-H1395
  IC50: > 200 nM
LoVo
  IC50: > 200 nM
A-431
  IC50: > 200 nM
CCRF-CEM
  IC50: > 200 nM
COR-L105
  IC50: > 200 nM
SH-4
  IC50: > 200 nM
C-33-A
  IC50: > 200 nM
RH-1
  IC50: > 200 nM
RKO
  IC50: > 200 nM
NCI-H292
  IC50: > 200 nM
D-392MG
  IC50: 158 nM

## Cn1cncc1[C@@](N)(c1ccc(Cl)cc1)c1ccc2c(c1)c(-c1cccc(Cl)c1)cc(=O)n2C [TIPIFARNIB]
SW1573
  IC50: > 16000 nM
CP50-MEL-B
  IC50: > 16000 nM
no-11
  IC50: 4010 nM
CAL-62
  IC50: 1790 nM
COLO-679
  IC50: 985 nM
Lu-65
  IC50: > 16000 nM
LAN-6
  IC50: 14100 nM
BE-13
  IC50: 4940 nM
GCIY
  IC50: 12500 nM
ESS-1
  IC50: > 16000 nM
KLE
  IC50: 8910 nM
ATN-1
  IC50: 2540 nM
CAL-33
  IC50: 3680 nM
IST-MES1
  IC50: 14600 nM
EKVX
  IC50: > 16000 nM
OS-RC-2
  IC50: 15000 nM
HH
  IC50: 191 nM
SK-N-AS
  IC50: > 16000 nM
SW872
  IC50: 1450 nM
EW-24
  IC50: > 16000 nM
MG-63
  IC50: 1840 nM
NKM-1
  IC50: 774 nM
NCI-H358
  IC50: 4920 nM
GP5d
  IC50: 1420 nM
A704
  IC50: > 16000 nM
UACC-257
  IC50: > 16000 nM
MDA-MB-415
  IC50: 14200 nM
NCI-H2087
  IC50: 2280 nM
CWR22R
  IC50: 3220 nM
TGBC24TKB
  IC50: > 16000 nM
ES7
  IC50: 1470 nM
NCI-H2347
  IC50: > 16000 nM
NCI-H82
  IC50: 9100 nM
NCI-H596
  IC50: 1820 nM
LB1047-RCC
  IC50: > 16000 nM
SiHa
  IC50: > 16000 nM
HCC1569
  IC50: 2580 nM
KG-1
  IC50: 3060 nM
S-117
  IC50: 9590 nM
WM-115
  IC50: > 16000 nM
KYSE-270
  IC50: 217 nM
NCI-H1395
  IC50: > 16000 nM
LoVo
  IC50: 241 nM
A-431
  IC50: 655 nM
CCRF-CEM
  IC50: 1640 nM
COR-L105
  IC50: 7240 nM
SH-4
  IC50: 1300 nM
C-33-A
  IC50: 4490 nM
RH-1
  IC50: 2750 nM
RKO
  IC50: 1230 nM
NCI-H292
  IC50: 9280 nM
D-392MG
  IC50: > 16000 nM

## Nc1ccn([C@@H]2O[C@H](CO)[C@@H](O)[C@@H]2O)c(=O)n1 [CYTARABINE]
SW1573
  IC50: > 2000 nM
CP50-MEL-B
  IC50: > 2000 nM
no-11
  IC50: > 2000 nM
CAL-62
  IC50: 710 nM
COLO-679
  IC50: > 2000 nM
Lu-65
  IC50: > 2000 nM
LAN-6
  IC50: > 2000 nM
BE-13
  IC50: 825 nM
GCIY
  IC50: > 2000 nM
ESS-1
  IC50: > 2000 nM
KLE
  IC50: > 2000 nM
ATN-1
  IC50: 366 nM
CAL-33
  IC50: 1180 nM
IST-MES1
  IC50: > 2000 nM
EKVX
  IC50: > 2000 nM
OS-RC-2
  IC50: 1580 nM
HH
  IC50: > 2000 nM
SK-N-AS
  IC50: 450 nM
SW872
  IC50: > 2000 nM
EW-24
  IC50: 794 nM
MG-63
  IC50: > 2000 nM
NKM-1
  IC50: 1060 nM
NCI-H358
  IC50: > 2000 nM
GP5d
  IC50: 102 nM
A704
  IC50: > 2000 nM
UACC-257
  IC50: > 2000 nM
MDA-MB-415
  IC50: > 2000 nM
NCI-H2087
  IC50: > 2000 nM
CWR22R
  IC50: > 2000 nM
TGBC24TKB
  IC50: 1850 nM
ES7
  IC50: 257 nM
NCI-H2347
  IC50: > 2000 nM
NCI-H82
  IC50: > 2000 nM
NCI-H596
  IC50: > 2000 nM
LB1047-RCC
  IC50: 108 nM
SiHa
  IC50: 856 nM
HCC1569
  IC50: > 2000 nM
KG-1
  IC50: 1160 nM
S-117
  IC50: > 2000 nM
WM-115
  IC50: > 2000 nM
KYSE-270
  IC50: 849 nM
NCI-H1395
  IC50: > 2000 nM
LoVo
  IC50: 671 nM
A-431
  IC50: > 2000 nM
CCRF-CEM
  IC50: > 2000 nM
COR-L105
  IC50: 160 nM
SH-4
  IC50: > 2000 nM
C-33-A
  IC50: 551 nM
RH-1
  IC50: 328 nM
RKO
  IC50: 599 nM
NCI-H292
  IC50: 114 nM
